Experimental data reported in patent US7998986B2, “Modulators of LXR” (Exelixis Patent Company LLC, priority 2001, dated 2011).

Experiments:
LXRα [1] = target: T1, LXRα (Homo sapiens, UniProt Q13133); assay: Scintillation proximity assay (SPA), displacement of 3H-24,25-epoxycholesterol; design: made in house; conditions: scintillation proximity binding assay; average of at least two dose response experiments; read-out: Ki(α)
T1 sequence (Q13133 1-447): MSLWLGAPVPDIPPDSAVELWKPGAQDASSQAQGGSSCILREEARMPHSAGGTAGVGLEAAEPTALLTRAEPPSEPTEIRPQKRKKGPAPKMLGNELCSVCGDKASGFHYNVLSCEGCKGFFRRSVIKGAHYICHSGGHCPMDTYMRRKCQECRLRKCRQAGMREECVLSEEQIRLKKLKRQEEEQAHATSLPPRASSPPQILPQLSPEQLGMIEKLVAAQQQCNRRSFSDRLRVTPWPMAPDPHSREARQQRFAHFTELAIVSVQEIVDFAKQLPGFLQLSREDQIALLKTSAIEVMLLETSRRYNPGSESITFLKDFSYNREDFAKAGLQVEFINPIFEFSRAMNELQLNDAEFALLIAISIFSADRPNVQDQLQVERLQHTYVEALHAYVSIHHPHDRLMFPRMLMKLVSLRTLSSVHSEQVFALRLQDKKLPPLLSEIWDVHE
T1 sequence (P19793 1-462 partner): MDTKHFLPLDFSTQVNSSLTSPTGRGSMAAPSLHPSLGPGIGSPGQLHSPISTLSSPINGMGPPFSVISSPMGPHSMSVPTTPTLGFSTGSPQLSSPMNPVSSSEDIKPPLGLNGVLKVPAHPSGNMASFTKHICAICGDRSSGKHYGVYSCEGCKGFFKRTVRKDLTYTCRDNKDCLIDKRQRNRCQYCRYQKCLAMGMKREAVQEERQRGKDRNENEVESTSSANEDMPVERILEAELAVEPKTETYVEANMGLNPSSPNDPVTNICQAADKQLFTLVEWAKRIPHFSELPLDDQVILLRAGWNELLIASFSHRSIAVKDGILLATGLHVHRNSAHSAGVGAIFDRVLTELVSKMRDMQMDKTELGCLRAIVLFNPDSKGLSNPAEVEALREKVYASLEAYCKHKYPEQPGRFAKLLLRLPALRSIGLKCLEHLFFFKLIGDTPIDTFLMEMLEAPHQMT
Experimental: (§1) The SPA assay measures the radioactive signal generated by the binding of ^3H-24, 25-epoxycholesterol to LXRα or LXRβ. The basis of the assay is the use of SPA beads containing a scintillant, such that when binding to the receptor brings the labeled ligand into proximity with the bead, the energy from the label stimulates the scintillant to emit light. The light is measured using a standard microplate scintillation reader. The ability of a ligand to bind to a receptor can be measured by assessing the degree to which the compound can compete off a radiolabelled ligand with known affinity for the receptor.
(§2) A. Required Materials • 1. Label: ^3H-24, 25-epoxy-cholesterol (Amersham) • 2. LXRα lysate: Baculovirus expressed LXRα/RXR heterodimer with RXR having a 6-HIS tag produced as a crude lysate • 3. LXRβ lysate: Baculovirus expressed LXRβ/RXR heterodimer with RXR having a 6-HIS tag produced as a crude lysate • 4. SPA beads: Ysi copper His-tag SPA beads (Amersham) • 5. Plates: Non-binding surface 96-well plate (Corning) • 6. Protein lysate dilution buffer: (20 mM Tris-HCl pH 7.9, 500 mM NaCl, 5 mM Imidazole). • 7. 2×SPA Buffer: (40 mM K2HPO4/KH2PO4 pH7.3, 100 mM NaCl, 0.05% Tween 20, 20% Glycerol, 4mM EDTA) • 8. 2×SPA Buffer w/o EDTA: (40 mM K2HPO4/KH2PO4 pH7.3, 100 mM NaCl, 0.05% Tween 20, 20% Glycerol)
(§3) B. Preparation of Screening Reagents • 1. [^3H]24,25 Epoxycholesterol (EC) solution. For a single 384-well plate (or 400 wells), add 21 μl [^3H] EC (specific activity 76.5Ci/mmol, concentration 3.2mCi/ml) in 4.4 ml of 2×SPA buffer to a final concentration of 200nM. For each additional 384-well plate, add 19.1 μl additional [^3H] EC and 4.0 ml additional 2×SPA buffer. The final concentration of [^3H] EC in the well will be 50 nM. • 2. Dilute LXRα lysate with protein lysate dilution buffer. Make 1400 μl of diluted LXRα lysate for a 384-well plate, (or 200 wells) and 1120 μl of diluted LXRα lysate for each additional 384-well plate. • 3. Diluted LXRβ lysate with protein lysate dilution buffer. Make 1400 μl of diluted LXRβ lysate for 1 a 384-well plate, (or 200 wells) and 1120 μl of diluted LXRβ lysate for each additional 384-well plate. • 4. SPA bead solution. For 1 a 384-well plate (or 400 wells), mix 3.75 ml of 2× SPA buffer w/o EDTA, 2.25 ml of H2O, and 1.5 ml of Ysi His-tag SPA beads (Vortex well before taking). For each addition 384-well plate, mix additional 3.5 ml of 2×SPA buffer w/o EDTA, 2.1 ml of H2O, and 1.4 ml of Ysi His-tag SPA beads to the SPA bead solution.
(§4) C. Procedure: • 1. Prepare appropriate dilutions of each compound and pipette into the appropriate wells of a multiwell plate. • 2. Add 9.1 μl of [^3H] EC to each well of column 2-23 of the multiwell plate. • 3. Add 5 μl of diluted LXRα lysate to each well of column 2-23 on odd rows of the multiwell plate. • Add 5 μl of diluted LXRβ lysate to each well of column 2-23 on even rows of the multiwell plate. • 4. Add 17.5 μl of SPA bead solution to each well of column 2-23 of the multiwell plate. • 5. Cover the plates with clear sealer. Place the plates in the MicroBeta. Incubate at room temperature for 1 hr. • 6. Count using program n ABASE 3H—384DPM. The setting for n ABASE 3H—384DPM is:
(§5) Assays for LXRα and LXRβ were performed in the identical manner. The determined Ki represents the average of at least two independent dose response experiments. The binding affinity for each compound may be determined by non-linear regression analysis using the one site competition formula to determine the IC50 where:
(§6) [formula] The Ki is than calculated using the Cheng and Prusoff equation where:
(§7) [formula] Ligand=50 nM EC and Kd=200 nM as determined by saturation binding

LXRβ [2] = target: T2, LXRβ (Homo sapiens, UniProt P55055); assay: as above; design: made in house; conditions: scintillation proximity binding assay; average of at least two dose response experiments; read-out: Ki(β)
T2 sequence (P55055 1-460): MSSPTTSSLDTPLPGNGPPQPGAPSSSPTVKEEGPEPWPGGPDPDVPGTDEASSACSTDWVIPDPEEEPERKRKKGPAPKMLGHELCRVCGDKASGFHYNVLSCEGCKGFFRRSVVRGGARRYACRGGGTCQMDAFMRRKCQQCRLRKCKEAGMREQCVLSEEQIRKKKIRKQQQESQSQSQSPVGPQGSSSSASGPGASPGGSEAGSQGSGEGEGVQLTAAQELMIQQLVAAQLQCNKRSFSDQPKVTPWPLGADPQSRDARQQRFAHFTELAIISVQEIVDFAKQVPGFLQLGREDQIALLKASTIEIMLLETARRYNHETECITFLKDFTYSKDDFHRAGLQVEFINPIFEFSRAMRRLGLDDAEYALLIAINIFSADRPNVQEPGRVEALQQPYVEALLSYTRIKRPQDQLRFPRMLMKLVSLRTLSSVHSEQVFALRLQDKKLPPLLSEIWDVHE
T2 sequence (P19793 1-462 partner): T1 sequence (P19793 1-462 partner)
Experimental: as §1, §2, §3, §4, §5, §6, §7

LXRα [3] = target: T1, LXRα; assay: LXR/LXRE co-transfection assay (luciferase reporter, CV-1 cells); type: cell-based; design: expressed in transfected cells; host or cells: CV-1 African Green Monkey Kidney Cells; conditions: for EC50: CV-1 cells, agonism; for LXRα/LXRE Eff: efficacy relative to control N-(3-((4-fluorophenyl)-(naphthalene-2-sulfonyl)-amino)propyl)-2,2-dimethylpropionamide
Text: (§8) To measure the ability of compounds to activate or inhibit the transcriptional activity of LXR, in a cell based assay, the cotransfection assay may be used. It has been shown that LXR functions as a heterodimer with RXR. For the co-transfection assay, expression plasmids for LXR and RXR are introduced via transient transfection into mammalian cells along with a luciferase reporter plasmid that contains one copy of a DNA sequence that is bound by LXR-RXR heterodimers (LXRE; Willy, P. et al. 1995). Treatment of transfected cells with an LXR agonist increases the transcriptional activity of LXR, which is measured by an increase in luciferase activity.
(§9) A. Required Materials • 1. CV-1 African Green Monkey Kidney Cells • 2. Co-transfection Expression plasmids, CMX-hLXR, or CMX-hLXR, CMX-RXR, reporter (LXREx1-Tk-Luciferase), and control (CMX-Galactosidase expression vector). • 3. Transfection reagent such as FuGENE6 (Roche). • 4. 1× Cell lysis buffer (1% Triton X 100 (JT Baker X200-07), 10% Glycerol (JT Baker M778-07), 5 mM Ditriotreitol (Quantum Bioprobe DTT03; add fresh before lysing), 1 mM EGTA (Ethylene Glycol-bis (B-Amino ethyl ether)-N,N,N′,N′-Tetracetic Acid) (Sigma E-4378), 25 mM Tricine (ICN 807420) pH 7.8 • 5. 1× Luciferase assay buffer (pH at 7.8) (0.73 mM ATP, 22.3 mM Tricine, 0.11 mM EDTA 33.3 mM DTT) • 6. 1× Luciferrin/CoA (11 mM Luciferin, 3.05 mM Coenzyme A, 10 mM HEPES
(§10) B. Preparation of Screening Reagents • 1. CV-1 cells are prepared 24 hours prior to the experiment by plating them into T-175 flasks or 500 cm^2 dishes in order to achieve 70-80% confluency on the day of the transfection. The number of cells to be transfected is determined by the number of plates to be screened. Each 384 well plate requires 1.92×10^6 cells or 5000 cells per well. • 2. DNA Transfection Reagent is prepared by mixing the required plasmid DNAs with a cationic lipid transfection reagent such as DOTAP or FuGENE6 by following the instructions provided with the reagents. Optimal DNA amounts need to be determined empirically per cell line and size of vessel to be transfected. • 3. Add 10-12 mls media to the DNA Transfection Reagent and add this mixture to the cells after aspirating media from a T175 cm^2 flask. • 4. Incubate at least 5 hours at 37 degrees to prepare screening cells. • 5. Luciferase assay reagent is prepared by combining before use (per • 10 ml): • 10 ml 1× Luciferase assay buffer • 0.54 mls of 1× Luciferrin/CoA • 0.54 mls of 0.2 M Magnesium sulfate
(§11) 1. C. Procedure • 1. Prepare assay plates by dispensing 0.5 ul of 1 mM compound per well of a 384 well plate to achieve final compound concentration of 10 uM and 1% DMSO. • 2. Remove media from the screening cells, trypsinize, harvest cells by centrifugation, count the cells, and plate at 5000 cells per well in the 384 well assay plate prepared above in a volume of about 45 ul. • 3. Incubate assay plates containing both compounds and screening cells for 20 hours at 37 C. degrees. • 4. Carefully aspirate media from cells and ensure that cells are not lifted off. • 5. Add lysis buffer (30 ul/well) and incubate at least 30 minutes room temp. • 6. Add luciferase assay buffer (30 ul/well) and read assay plates on luminometer (PE Biosystems Northstar reader with on-board injectors, or equivalent). • 7. Read plates immediately after addition of luciferase assay reagent.
(§12) The LXR/LXRE co-transfection assay can be used to establish the EC50/IC50 values for potency and percent activity or inhibition for efficacy. Efficacy defines the activity of a compound relative to a high control ((N-(3-((4-fluorophenyl)-(naphthalene-2-sulfonyl)-amino)propyl)-2,2-dimethylpropionamide)) or a low control (DMSO/vehicle). The dose response curves are generated from an 8 point curve with concentrations differing by ½ LOG units. Each point represents the average of 4 wells of data from a 384 well plate. The curve for the data is generated by using the equation: Y=Bottom+(Top-Bottom)/(1+10^((LogEC50-X)*HillSlope)) […]

LXRβ [4] = target: T2, LXRβ; assay: as above; type: cell-based; design: expressed in transfected cells; host or cells: CV-1 African Green Monkey Kidney Cells; conditions: for EC50: CV-1 cells, agonism; for LXRβ/LXRE Eff: efficacy relative to control N-(3-((4-fluorophenyl)-(naphthalene-2-sulfonyl)-amino)propyl)-2,2-dimethylpropionamide
Text: as §8, §9, §10, §11, §12

Row | Compound | Ki (LXRα [1]) [nM] | Ki (LXRβ [2]) [nM] | EC50 (LXRα [3]) [nM] | LXRα/LXRE Eff (LXRα [3]) [%] | EC50 (LXRβ [4]) [nM] | LXRβ/LXRE Eff (LXRβ [4]) [%]
1 | N#Cc1c(C(F)(F)F)cc(-c2cccs2)n(Cc2ccccc2)c1=O [1-Benzyl-2-oxo-6-thiophen-2-yl-4-trifluoromethyl-1,2-dihydro-pyridine-3-carbonitrile] | 1400 | 580 | 1600 | 56 | 1800 | 82
2 | N#Cc1c(C(F)(F)F)cc(-c2ccccc2)n(N=C2CCCCC2)c1=O [1-Cyclohexylideneamino-2-oxo-6-phenyl-4-trifluoromethyl-1,2-dihydropyridine-3-carbonitrile] | 690 | 450 | 3400 | 90 | 4300 | 72
3 | COc1cccc(-c2cc(C(F)(F)F)c(C#N)c(=O)n2Cc2ccccc2)c1 [1-Benzyl-6-(3-methoxy-phenyl)-2-oxo-4-trifluoromethyl-1,2-dihydro-pyridine-3-carbonitrile] | 510 | 120 | 1200 | 78 | 840 | 79
4 | Cc1ccc(Cn2c(-c3ccccc3)cc(C(F)(F)F)c(C#N)c2=O)o1 [1-(5-Methyl-furan-2-ylmethyl)-2-oxo-6-phenyl-4-trifluoromethyl-1,2-dihydro-pyridine-3-carbonitrile] | 360 | 230 | 580 | 91 | 810 | 93
